Reference: patent US20260022142A1, “MACROCYCLIC IMMUNOMODULATORS” (Bristol-Myers Squibb Company, priority 2022, published 2026)
Numbered stars: 1 amine (or outer) side, 2 acyl side, 3 side chain; on linkers, the order of the positions; unused ones are H or OH. Bridge positions count the residues as written; N and C are the ends. Square brackets hold non-standard residues; d marks the D form. Peptide text beside a SMILES is read from it. * marks the point of attachment. ξ: configuration not given here. Phe(4-COOH) = N[C@@H](Cc1ccc(C(=O)O)cc1)C(=O)O; Bip = N[C@@H](Cc1ccc(-c2ccccc2)cc1)C(=O)O; Phe(3-Me) = Cc1cccc(C[C@H](N)C(=O)O)c1; βAsp = O=C(O)[C@H](CC(=O)[*:2])N[*:1]; PEG6 = NCCOCCOCCOCCOCCOCCOCCC(=O)O; X12 = CC(N)[C@H](N[*:1])C(=O)[*:2]; hArg = N=C(N)NCCCC[C@H](N)C(=O)O; 4Pal = N[C@@H](Cc1ccncc1)C(=O)O; Cha = N[C@@H](CC1CCCCC1)C(=O)O; Cit = NC(=O)NCCC[C@H](N)C(=O)O; Ile(3ξ) = CCC(C)[C@H](N)C(=O)O; Thr(3ξ) = CC(O)[C@H](N)C(=O)O; 12Ado = NCCCCCCCCCCCC(=O)O; Carboxymethyl = O=C(O)C*; Orn = NCCC[C@H](N)C(=O)O; Aun = NCCCCCCCCCCC(=O)O; Dab = NCC[C@H](N)C(=O)O; AEEA = NCCOCCOCC(=O)O

These compounds were tested against T1, PD-1/PD-L1 interaction (PE-labeled human PD-L1-Ig binding to Jurkat cell line over-expressing human PD-1) (Homo sapiens, UniProt Q15116) (assay: Jurkat-PD-1 Cell Binding High-Content Screening Assay (CBA)). Details: Jurkat cell line over-expressing human PD-1; PE-labeled PD-L1-Ig 20 nM final; read-out: Jurkat hPD1-PDL1 IC50.
T1 construct: expressed in transfected cells; host or cells: Jurkat
T1 sequence (Q15116 25-288): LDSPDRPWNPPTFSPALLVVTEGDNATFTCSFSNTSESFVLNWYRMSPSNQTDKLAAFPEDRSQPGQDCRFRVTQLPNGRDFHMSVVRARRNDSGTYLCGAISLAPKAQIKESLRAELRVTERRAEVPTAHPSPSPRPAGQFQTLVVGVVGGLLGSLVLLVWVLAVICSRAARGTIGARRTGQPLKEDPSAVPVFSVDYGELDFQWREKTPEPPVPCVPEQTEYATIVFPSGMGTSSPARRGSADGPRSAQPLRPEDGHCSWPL
Type: cell-based
Procedure, shortened: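 First, compound is added to PD-1-expressing Jurkat cells in serum-containing DMEM and left 2 h at 37° C. Next, PE-conjugated PD-L1-Ig is introduced at 20 nM final concentration for 1 hour. Finally, cells are fixed in 4% paraformaldehyde with Hoechst 33342, washed and imaged.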
For `CC(C)C[C@H]1NC(=O)[C@H](CCCN)NC(=O)[C@H](CCC(=O)O)NC(=O)[C@H](Cc2ccc(-c3ccccc3)cc2)NC(=O)[C@H](C(C)C)NC(=O)[C@H](Cc2c[nH]c3ccccc23)NC(=O)[C@H](CC(=O)O)NC(=O)[C@H](Cc2ccc(C(=O)O)cc2)NC(=O)[C@H](C(C)N)NC(=O)CSC[C@@H](C(=O)N[C@@H](CC(N)=O)C(=O)NCCOCCOCCOCCOCCOCCOCCC(=O)N[C@@H](CCCN)C(=O)NCCCCCCCCCCCC(=O)O)NC(=O)[C@H](CO)NC(=O)[C@H](C(C)C)NC(=O)[C@H](CC2CCCCC2)NC(=O)[C@H](CCN)NC1=O` (stereo partly drawn) [Compound 3046] ({CH2CO}-[X12][Phe(4-COOH)]DWV[Bip]E[Orn][dL][Dab][Cha]VSCN[PEG6][Orn][12Ado]-OH; thioether N-14), the IC50 was 13.1 nM.
Compound `Cc1cccc(C[C@@H]2NC(=O)[C@H](CC(=O)O)NC(=O)[C@H](Cc3ccc(OCC(=O)O)cc3)NC(=O)[C@H](CCN)NC(=O)CSC[C@@H](C(=O)NCCOCCOCC(=O)NCCCCCCCCCCC(=O)O)NC(=O)[C@H](C(C)O)NC(=O)[C@H](C(C)C)NC(=O)[C@H](CC3CCCCC3)NC(=O)[C@H](CCN)NC(=O)[C@@H](CC(C)C)NC(=O)[C@H](CCCN)NC(=O)[C@H](CCCNC(N)=O)NC(=O)[C@H](Cc3ccc(-c4ccccc4)cc3)NC(=O)[C@H](C(C)C)NC2=O)c1` (stereo partly drawn) [Compound 3047] ({CH2CO}-[Dab]Y(Carboxymethyl)D[Phe(3-Me)]V[Bip][Cit][Orn][dL][Dab][Cha]V[Thr(3ξ)]C[AEEA][Aun]-OH; thioether N-14) has an IC50 of 13.3 nM.
`CC(C)C[C@H]1NC(=O)[C@H](CCCN)NC(=O)[C@H](C(C)C)NC(=O)[C@H](Cc2ccc(-c3ccccc3)cc2)NC(=O)[C@H](C(C)C)NC(=O)[C@H](Cc2c[nH]c3ccccc23)NC(=O)[C@H](CC(=O)O)NC(=O)[C@H](Cc2ccc(OCC(=O)O)cc2)NC(=O)[C@H](Cc2ccncc2)NC(=O)CSC[C@@H](C(=O)NCCOCCOCC(=O)NCCCCCCCCCCC(=O)O)NC(=O)[C@H](C(C)O)NC(=O)[C@H](C(C)C)NC(=O)[C@H](CC2CCCCC2)NC(=O)[C@H](CCN)NC1=O` (stereo partly drawn) [Compound 3048] ({CH2CO}-[4Pal]Y(Carboxymethyl)DWV[Bip]V[Orn][dL][Dab][Cha]V[Thr(3ξ)]C[AEEA][Aun]-OH; thioether N-14) gave an IC50 of 23.2 nM.
Work on `Cc1cccc(C[C@@H]2NC(=O)[C@H](CC(=O)O)NC(=O)[C@H](Cc3ccc(OCC(=O)O)cc3)NC(=O)[C@H](CCCNC(N)=O)NC(=O)CSC[C@@H](C(=O)N[C@@H](CCCN)C(=O)NCCCCCCCCCCC(=O)O)NC(=O)[C@H](CO)NC(=O)[C@H](C(C)C)NC(=O)[C@H](CC3CCCCC3)NC(=O)[C@H](CCN)NC(=O)[C@@H](CC(C)C)NC(=O)[C@H](CCCN)NC(=O)[C@H](C(C)C)NC(=O)[C@H](Cc3ccc(-c4ccccc4)cc3)NC(=O)[C@H](C(C)C)NC2=O)c1` [Compound 3049] ({CH2CO}-[Cit]Y(Carboxymethyl)D[Phe(3-Me)]V[Bip]V[Orn][dL][Dab][Cha]VSC[Orn][Aun]-OH; thioether N-14) yielded an IC50 of 39.5 nM.
With `CC(C)C[C@H]1NC(=O)[C@H](CCCN)NC(=O)[C@H](C(C)C)NC(=O)[C@H](Cc2ccc(-c3ccccc3)cc2)NC(=O)[C@H](C(C)C)NC(=O)[C@H](Cc2c[nH]c3ccccc23)NC(=O)[C@H](CC(=O)O)NC(=O)[C@H](Cc2ccc(OCC(=O)O)cc2)NC(=O)[C@H](C(C)O)NC(=O)CSC[C@@H](C(=O)NCCOCCOCC(=O)N[C@@H](CCCCN)C(=O)NCCCCCCCCCCC(=O)O)NC(=O)[C@H](C(C)O)NC(=O)[C@H](C(C)C)NC(=O)[C@H](CC2CCCCC2)NC(=O)[C@H](CCN)NC1=O` (stereo partly drawn) [Compound 3052] ({CH2CO}-[Thr(3ξ)]Y(Carboxymethyl)DWV[Bip]V[Orn][dL][Dab][Cha]V[Thr(3ξ)]C[AEEA]K[Aun]-OH; thioether N-14) the IC50 was 10.1 nM.
`CC(C)C[C@H]1NC(=O)[C@H](CCCN)NC(=O)[C@H](C(C)C)NC(=O)[C@H](Cc2ccc(-c3ccccc3)cc2)NC(=O)[C@H](C(C)C)NC(=O)[C@H](Cc2c[nH]c3ccccc23)NC(=O)[C@H](CC(=O)O)NC(=O)[C@H](Cc2ccc(OCC(=O)O)cc2)NC(=O)[C@H](C(C)O)NC(=O)CSC[C@@H](C(=O)N[C@H](CC(N)=O)C(=O)NCCOCCOCC(=O)NCCCCCCCCCCC(=O)O)NC(=O)[C@H](CO)NC(=O)[C@H](C(C)C)NC(=O)[C@H](CC2CCCCC2)NC(=O)[C@H](CCN)NC1=O` (stereo partly drawn) [Compound 3053] ({CH2CO}-[Thr(3ξ)]Y(Carboxymethyl)DWV[Bip]V[Orn][dL][Dab][Cha]VSC[dN][AEEA][Aun]-OH; thioether N-14) showed an IC50 of 8.8 nM.
`CC(C)C[C@H]1NC(=O)[C@H](CCCN)NC(=O)[C@H](C(C)C)NC(=O)[C@H](Cc2ccc(-c3ccccc3)cc2)NC(=O)[C@H](C(C)C)NC(=O)[C@H](Cc2c[nH]c3ccccc23)NC(=O)[C@H](CC(=O)O)NC(=O)[C@H](Cc2ccc(OCC(=O)O)cc2)NC(=O)[C@H](Cc2c[nH]cn2)NC(=O)CSC[C@@H](C(=O)N[C@H](C)C(=O)NCCOCCOCC(=O)NCCCCCCCCCCC(=O)O)NC(=O)[C@H](C(C)O)NC(=O)[C@H](C(C)C)NC(=O)[C@H](CC2CCCCC2)NC(=O)[C@H](CCN)NC1=O` (stereo partly drawn) [Compound 3054] ({CH2CO}-HY(Carboxymethyl)DWV[Bip]V[Orn][dL][Dab][Cha]V[Thr(3ξ)]C[dA][AEEA][Aun]-OH; thioether N-14) gave an IC50 of 14.6 nM.
In the case of `CC(C)C[C@H]1NC(=O)[C@H](CCCN)NC(=O)[C@H](Cc2c[nH]cn2)NC(=O)[C@H](Cc2ccc(-c3ccccc3)cc2)NC(=O)[C@H](C(C)C)NC(=O)[C@H](Cc2c[nH]c3ccccc23)NC(=O)[C@H](CC(=O)O)NC(=O)[C@H](Cc2ccc(OCC(=O)O)cc2)NC(=O)[C@H](C(C)O)NC(=O)CSC[C@@H](C(=O)N[C@@H](CC(=O)NCCOCCOCC(=O)N[C@@H](CCCN)C(=O)NCCCCCCCCCCC(=O)O)C(=O)O)NC(=O)[C@H](CO)NC(=O)[C@H](C(C)C)NC(=O)[C@H](CC2CCCCC2)NC(=O)[C@H](CCN)NC1=O` (stereo partly drawn) [Compound 3056] ({CH2CO}-[Thr(3ξ)]Y(Carboxymethyl)DWV[Bip]H[Orn][dL][Dab][Cha]VSC[βAsp][AEEA][Orn][Aun]-OH; thioether N-14), the IC50 is reported as 17.7 nM.
Work on `CC(C)C[C@H]1NC(=O)[C@H](CCCN)NC(=O)[C@H](Cc2c[nH]cn2)NC(=O)[C@H](Cc2ccc(-c3ccccc3)cc2)NC(=O)[C@H](C(C)C)NC(=O)[C@H](Cc2c[nH]c3ccccc23)NC(=O)[C@H](CC(=O)O)NC(=O)[C@H](Cc2ccc(OCC(=O)O)cc2)NC(=O)[C@H](Cc2ccccc2)NC(=O)CSC[C@@H](C(=O)N[C@@H](CCCN)C(=O)NCCOCCOCC(=O)NCCCCCCCCCCC(=O)O)NC(=O)[C@H](CO)NC(=O)[C@H](C(C)C)NC(=O)[C@H](CC2CCCCC2)NC(=O)[C@H](CCN)NC1=O` [Compound 3057] ({CH2CO}-FY(Carboxymethyl)DWV[Bip]H[Orn][dL][Dab][Cha]VSC[Orn][AEEA][Aun]-OH; thioether N-14) yielded an IC50 of 53.9 nM.
In the case of `CCC(C)[C@@H]1NC(=O)[C@H](Cc2ccc(-c3ccccc3)cc2)NC(=O)[C@H](C(C)C)NC(=O)[C@H](Cc2c[nH]c3ccccc23)NC(=O)[C@H](CC(=O)O)NC(=O)[C@H](Cc2ccc(C(=O)O)cc2)NC(=O)[C@H](Cc2ccncc2)NC(=O)CSC[C@@H](C(=O)N[C@H](CC(N)=O)C(=O)NCCOCCOCC(=O)N[C@@H](CCCN)C(=O)NCCCCCCCCCCC(=O)O)NC(=O)[C@H](CO)NC(=O)[C@H](C(C)C)NC(=O)[C@H](CC2CCCCC2)NC(=O)[C@H](CCN)NC(=O)[C@@H](CC(C)C)NC(=O)[C@H](CCCN)NC1=O` (stereo partly drawn) [Compound 3058] ({CH2CO}-[4Pal][Phe(4-COOH)]DWV[Bip][Ile(3ξ)][Orn][dL][Dab][Cha]VSC[dN][AEEA][Orn][Aun]-OH; thioether N-14), the IC50 is reported as 13 nM.
`CCC(C)[C@@H]1NC(=O)[C@H](Cc2ccc(-c3ccccc3)cc2)NC(=O)[C@H](C(C)C)NC(=O)[C@H](Cc2c[nH]c3ccccc23)NC(=O)[C@H](CC(=O)O)NC(=O)[C@H](Cc2ccc(C(=O)O)cc2)NC(=O)[C@H](Cc2ccncc2)NC(=O)CSC[C@@H](C(=O)N[C@H](CO)C(=O)NCCOCCOCC(=O)N[C@@H](CCCN)C(=O)NCCCCCCCCCCC(=O)O)NC(=O)[C@H](CO)NC(=O)[C@H](C(C)C)NC(=O)[C@H](CC2CCCCC2)NC(=O)[C@H](CCN)NC(=O)[C@@H](CC(C)C)NC(=O)[C@H](CCCN)NC1=O` (stereo partly drawn) [Compound 3059] ({CH2CO}-[4Pal][Phe(4-COOH)]DWV[Bip][Ile(3ξ)][Orn][dL][Dab][Cha]VSC[dS][AEEA][Orn][Aun]-OH; thioether N-14) gave an IC50 of 12.2 nM.
In the case of `CCC(C)[C@@H]1NC(=O)[C@H](Cc2ccc(-c3ccccc3)cc2)NC(=O)[C@H](C(C)C)NC(=O)[C@H](Cc2c[nH]c3ccccc23)NC(=O)[C@H](CC(=O)O)NC(=O)[C@H](Cc2ccc(OCC(=O)O)cc2)NC(=O)[C@H](CCCCNC(=N)N)NC(=O)CSC[C@@H](C(=O)N[C@H](CO)C(=O)NCCOCCOCC(=O)NCCCCCCCCCCC(=O)O)NC(=O)[C@H](CO)NC(=O)[C@H](C(C)C)NC(=O)[C@H](CC2CCCCC2)NC(=O)[C@H](CCN)NC(=O)[C@@H](CC(C)C)NC(=O)[C@H](CCCN)NC1=O` (stereo partly drawn) [Compound 3060] ({CH2CO}-[hArg]Y(Carboxymethyl)DWV[Bip][Ile(3ξ)][Orn][dL][Dab][Cha]VSC[dS][AEEA][Aun]-OH; thioether N-14), the IC50 is reported as 17.8 nM.
`CC(C)C[C@H]1NC(=O)[C@H](CCCN)NC(=O)[C@H](CCC(=O)O)NC(=O)[C@H](Cc2ccc(-c3ccccc3)cc2)NC(=O)[C@H](C(C)C)NC(=O)[C@H](Cc2c[nH]c3ccccc23)NC(=O)[C@H](CC(=O)O)NC(=O)[C@H](Cc2ccc(C(=O)O)cc2)NC(=O)[C@H](Cc2ccc(OCC(=O)O)cc2)NC(=O)CSC[C@@H](C(=O)NCC(=O)NCCOCCOCC(=O)N[C@@H](CCCN)C(=O)NCCCCCCCCCCCC(=O)O)NC(=O)[C@H](CO)NC(=O)[C@H](C(C)C)NC(=O)[C@H](CC2CCCCC2)NC(=O)[C@H](CCN)NC1=O` [Compound 3062] ({CH2CO}-Y(Carboxymethyl)[Phe(4-COOH)]DWV[Bip]E[Orn][dL][Dab][Cha]VSCG[AEEA][Orn][12Ado]-OH; thioether N-14) showed an IC50 of 33 nM.
